Assay results: patent publication US20240301319A1, “PERFUMING COMPOSITIONS” (FIRMNICH SA, priority 2017, published 2024)

Tests used:
[1] = Odor threshold and odor value of perfuming compounds (Tables 4 to 10)
[2] = Volatility of perfuming compounds (Tables 4 to 10), with top/middle/bottom note type; assay type: physicochemical
Procedure, shortened: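 Note type follows from air volatility (μg/l): bottom 49–0.1, middle 99–50, top 70,000–100. Compounds are listed within watery, green, fruity, citrus, sweet, gourmand and woody families.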

[3] = Table 6, perfuming compounds having a fruity note
[4] = Table 6, perfuming compounds having a fruity note, note type by volatility
[5] = Table 9, perfuming compounds having a gourmand note, note type by volatility
[6] = Table 10, perfuming compounds having a woody note, note type by volatility
[7] = perfuming compounds having a green note
[8] = note type (Top/Middle/Bottom) by volatility, perfuming compounds having a green note
[9] = Table 8, perfuming compounds having a sweet note
[10] = Table 8, perfuming compounds having a sweet note, note type by volatility
[11] = Table 7, citrus note, equals volatility divided by odor threshold
[12] = Table 7, citrus note, top, middle or bottom note
[13] = Table 4, watery note, equals volatility divided by odor threshold
[14] = Table 4, watery note, top, middle or bottom note

Question: Which results are given for `CCCCCC1CCC(=O)O1` (racemic) [(+−)-4-NONANOLIDE]?
Answer: Odor Threshold [1, 3]: 1.45E−04 μg/l air; Odor Value [1, 3]: 1.89E+05; Odor Threshold ([1]; Table 9, gourmand note): 1.45E−04 μg/l air; Volatility [2, 3]: 27.42 μg/l air; Type [2, 4]: Bottom; Volatility ([2]; Table 9, gourmand note): 27.42 μg/l air; Type [2, 5]: Bottom

Question: Which “Odor Threshold” value ([1]; Table 10, woody note) does the source give for `CC1C(C)(C)C2=C(C(=O)CCC2)C1(C)C` (stereo not drawn) here?
Answer: 4.57E−03 μg/l air

Question: And the Type [2, 6]?
Answer: Bottom

Question: And the Volatility ([2]; Table 10, woody note)?
Answer: 29.81 μg/l air

Question: Which “Odor Threshold” value ([1]; Table 9, gourmand note) does the source give for `O=Cc1ccc2c(c1)OCO2` [benzo[d][1,3]dioxole-5-carbaldehyde] here?
Answer: 1.01E−04 μg/l air

Question: What about the Volatility ([2]; Table 9, gourmand note) of the same compound?
Answer: 61.82 μg/l air

Question: What about the Type [2, 5] of the same compound?
Answer: Middle

Question: Which results are given for `CC1=CCC(C(C)(C)O)CC1` (racemic) [(+−)-ALPHA-TERPINEOL]?
Answer: Odor Threshold ([1]; Table 10, woody note): 1.03E−01 μg/l air; Type [2, 6]: Top; Volatility ([2]; Table 10, woody note): 172.78 μg/l air

Question: Which results are given for `CCC/C=C/COC(C)=O` [(E)-2-HEXENYL ACETATE]?
Answer: Odor Threshold (μg/l air) [1, 7]: 2.08E−01 μg/l air; Volatility [2, 3]: 6062.68 μg/l air; Type [2, 4]: TOP (perfuming compounds having a volatility ranging from 70,000 to 100 μg/l in air are referred to as “top notes”); Type [2, 8]: Top; Volatility (μg/l air) [2, 7]: 6062.68 μg/l air

Question: Which results are given for `CC(=O)OCCc1ccccc1` [2-PHENYLETHYL ACETATE]?
Answer: Odor Threshold [1, 9]: 2.14E−03 μg/l air; Odor Value [1, 9]: 9.38E+04; Odor Threshold ([1]; Table 9, gourmand note): 2.14E−03 μg/l air; Volatility [2, 3]: 201.26 μg/l air; Type [2, 4]: TOP (perfuming compounds having a volatility ranging from 70,000 to 100 μg/l in air are referred to as “top notes”); Volatility [2, 9]: 201.26 μg/l air; Type [2, 10]: Top; Volatility ([2]; Table 9, gourmand note): 201.26 μg/l air; Type [2, 5]: Top

Question: Which “Odor Threshold (μg/l air)” value [1, 7] does the source give for `CC(CC=O)CC(C)(C)C` (racemic) [(+−)-3,5,5-TRIMETHYLHEXANAL] here?
Answer: 9.37E−03 μg/l air

Question: And the Type [2, 8]?
Answer: Top

Question: What about the “Volatility (μg/l air)” value [2, 7] of the same compound?
Answer: 12045.92 μg/l air

Question: Which “Odor Threshold” value [1, 3] does the source give for `CCOC(=O)C12CCCC1C1CCC2C1` (stereo not drawn) here?
Answer: 6.87E−05 μg/l air

Question: And the “Odor Value” [1, 3]?
Answer: 1.63E+06

Question: What about the “Odor Threshold (μg/l air)” value [1, 7] of the same compound?
Answer: 6.87E−05 μg/l air

Question: What about the Volatility [2, 3] of the same compound?
Answer: 111.67 μg/l air

Question: What about the Type [2, 4] of the same compound?
Answer: TOP (perfuming compounds having a volatility ranging from 70,000 to 100 μg/l in air are referred to as “top notes”)

Question: And the Type [2, 8]?
Answer: Top

Question: And the “Volatility (μg/l air)” value [2, 7]?
Answer: 111.67 μg/l air

Question: For “ALLYL (3-METHYLBUTOXY)ACETATE (A) + (+−)-ALLYL (2-METHYLBUTOXY)ACETATE (B)”, which “Odor Threshold (μg/l air)” value ([1]; Table 7, citrus note) is on record?
Answer: 9.89E−05 μg/l air

Question: What about the “Odor Value” [1, 11] of the same compound?
Answer: 2.65E+06

Question: And the “Volatility (μg/l air)” value ([2]; Table 7, citrus note)?
Answer: 261.90 μg/l air

Question: What about the Type [2, 12] of the same compound?
Answer: Top

Question: With `OCCc1ccccc1` [2-PHENYLETHANOL] as the compound, how does the “Odor Threshold” value [1, 9] read?
Answer: 1.02E−04 μg/l air

Question: What about the “Odor Value” [1, 9] of the same compound?
Answer: 1.56E+06

Question: And the “Odor Threshold” value ([1]; Table 9, gourmand note)?
Answer: 1.02E−04 μg/l air

Question: What about the Volatility [2, 3] of the same compound?
Answer: 159.75 μg/l air

Question: And the Type [2, 4]?
Answer: TOP (perfuming compounds having a volatility ranging from 70,000 to 100 μg/l in air are referred to as “top notes”)

Question: And the Volatility [2, 9]?
Answer: 159.75 μg/l air

Question: What about the Type [2, 10] of the same compound?
Answer: Top

Question: And the Volatility ([2]; Table 9, gourmand note)?
Answer: 159.75 μg/l air

Question: And the Type [2, 5]?
Answer: Top

Question: For `C=CC(C)(CCC=C(C)C)OC(C)=O` (racemic) [(+−)-1,5-DIMETHYL-1-VINYL-4-HEXENYL ACETATE], which “Odor Threshold (μg/l air)” value ([1]; Table 7, citrus note) is on record?
Answer: 7.40E−02 μg/l air

Question: And the “Odor Threshold (μg/l air)” value [1, 7]?
Answer: 7.40E−02 μg/l air

Question: And the Type [2, 4]?
Answer: TOP (perfuming compounds having a volatility ranging from 70,000 to 100 μg/l in air are referred to as “top notes”)

Question: What about the Type [2, 12] of the same compound?
Answer: Top

Question: And the Type [2, 8]?
Answer: Top

Question: And the “Volatility (μg/l air)” value [2, 7]?
Answer: 339.21 μg/l air

Question: What does the source list for `N#CC(=C1CCCCC1)c1ccccc1` [CYCLOHEXYLIDENE(PHENYL)ACETONITRILE]?
Answer: Odor Threshold (μg/l air) [1, 7]: 3.31E−04 μg/l air; Type [2, 8]: Bottom; Volatility (μg/l air) [2, 7]: 0.96 μg/l air

Question: With `C=CC(C)CC(=O)CC(C)C` (racemic) as the compound, how does the “Odor Threshold (μg/l air)” value ([1]; Table 7, citrus note) read?
Answer: 2.78E−01 μg/l air

Question: What about the “Odor Value” [1, 11] of the same compound?
Answer: 1.51E+04

Question: What about the Volatility [2, 3] of the same compound?
Answer: 4203.89 μg/l air

Question: And the Type [2, 4]?
Answer: TOP (perfuming compounds having a volatility ranging from 70,000 to 100 μg/l in air are referred to as “top notes”)

Question: And the “Volatility (μg/l air)” value ([2]; Table 7, citrus note)?
Answer: 4203.89 μg/l air

Question: And the Type [2, 12]?
Answer: Top

Question: What does the source list for `CCCC(O)CCC1C(C)CCC(C)C1(C)C` (racemic)?
Answer: Odor Threshold ([1]; Table 10, woody note): 4.05E−04 μg/l air; Type [2, 6]: Bottom; Volatility ([2]; Table 10, woody note): 3.42 μg/l air

Question: Which “Odor Threshold (μg/l air)” value [1, 7] does the source give for `COc1ccc(C(C)=O)cc1` [1-(4-METHOXYPHENYL)-1-ETHANONE″] here?
Answer: 1.41E−04 μg/l air

Question: What about the Type [2, 8] of the same compound?
Answer: Middle

Question: What about the “Volatility (μg/l air)” value [2, 7] of the same compound?
Answer: 50.21 μg/l air

Question: With `CC(C)(C)C1CCC(=O)CC1` [4-(2-methyl-2-propanyl)cyclohexanone] as the compound, how does the “Odor Threshold” value ([1]; Table 10, woody note) read?
Answer: 1.15E−01 μg/l air

Question: And the Type [2, 6]?
Answer: Top

Question: And the Volatility ([2]; Table 10, woody note)?
Answer: 755.28 μg/l air

Question: With `CC(=O)OC/C=C(/C)CCC=C(C)C` [(2Z)-3,7-dimethyl-2,6-octadien-1-yl acetate] as the compound, how does the “Odor Threshold (μg/l air)” value ([1]; Table 4, watery note) read?
Answer: 6.02E−02 μg/l air

Question: What about the “Odor Value” [1, 13] of the same compound?
Answer: 2.05E+03

Question: What about the “Odor Threshold” value [1, 3] of the same compound?
Answer: 6.02E−02 μg/l air

Question: What about the “Odor Value” [1, 3] of the same compound?
Answer: 2.05E+03

Question: And the “Volatility (μg/l air)” value ([2]; Table 4, watery note)?
Answer: 123.21 μg/l air

Question: And the Type [2, 14]?
Answer: TOP (perfuming compounds having a volatility ranging from 70,000 to 100 μg/l in air are referred to as “top notes”)

Question: What about the Volatility [2, 3] of the same compound?
Answer: 123.21 μg/l air

Question: And the Type [2, 4]?
Answer: TOP (perfuming compounds having a volatility ranging from 70,000 to 100 μg/l in air are referred to as “top notes”)

Question: Which “Odor Threshold” value [1, 3] does the source give for `CCCCC[C@@H]1OC(=O)C[C@H]1C` (racemic) [(+−)-TRANS-3-METHYL-4-NONANOLIDE] here?
Answer: 8.33E−04 μg/l air

Question: What about the “Odor Value” [1, 3] of the same compound?
Answer: 2.53E+04

Question: What about the “Odor Threshold” value [1, 9] of the same compound?
Answer: 8.33E−04 μg/l air

Question: What about the “Odor Value” [1, 9] of the same compound?
Answer: 2.53E+04

Question: What about the “Odor Threshold” value ([1]; Table 9, gourmand note) of the same compound?
Answer: 8.33E−04 μg/l air

Question: And the Volatility [2, 3]?
Answer: 21.05 μg/l air

Question: What about the Type [2, 4] of the same compound?
Answer: Bottom

Question: What about the Volatility [2, 9] of the same compound?
Answer: 21.05 μg/l air

Question: And the Type [2, 10]?
Answer: Bottom

Question: What about the Volatility ([2]; Table 9, gourmand note) of the same compound?
Answer: 21.05 μg/l air

Question: And the Type [2, 5]?
Answer: Bottom

Question: Which results are given for `CCCCCC#CC(=O)OC` [METHYL 2-OCTYNOATE]?
Answer: Odor Threshold (μg/l air) [1, 7]: 8.31E−04 μg/l air; Type [2, 8]: Top; Volatility (μg/l air) [2, 7]: 472.01 μg/l air

Question: Which results are given for `CC(C)=CCCC(C)C=O` (racemic)?
Answer: Odor Threshold (μg/l air) ([1]; Table 4, watery note): 2.11E−04 μg/l air; Odor Value [1, 13]: 8.96E+06; Volatility (μg/l air) ([2]; Table 4, watery note): 1889.68 μg/l air; Type [2, 14]: TOP (perfuming compounds having a volatility ranging from 70,000 to 100 μg/l in air are referred to as “top notes”); Volatility [2, 3]: 1889.68 μg/l air; Type [2, 4]: TOP (perfuming compounds having a volatility ranging from 70,000 to 100 μg/l in air are referred to as “top notes”)

Question: With `CC1(C)CCC[C@@]2(C)[C@H]1CC[C@@]1(C)OCC[C@@H]21` as the compound, how does the “Odor Threshold” value ([1]; Table 10, woody note) read?
Answer: 2.16E−03 μg/l air

Question: What about the Type [2, 6] of the same compound?
Answer: Bottom

Question: And the Volatility ([2]; Table 10, woody note)?
Answer: 9.23 μg/l air

Question: Which “Odor Threshold (μg/l air)” value [1, 7] does the source give for `CCCCCCCC(=O)OCC` [ethyl octanoate] here?
Answer: 5.30E−03 μg/l air

Question: And the Type [2, 8]?
Answer: Top

Question: What about the “Volatility (μg/l air)” value [2, 7] of the same compound?
Answer: 800.05 μg/l air

Question: With “TRICYCLO[5.2.1.0(2,6)]DEC-3-EN-8-YL PROPANOATE (A) + TRICYCLO[5.2.1.0(2,6)]DEC-4-EN-8-YL PROPANOATE (B)” as the compound, how does the “Odor Threshold (μg/l air)” value ([1]; Table 7, citrus note) read?
Answer: 2.44E−04 μg/l air

Question: What about the “Odor Value” [1, 11] of the same compound?
Answer: 1.47E+05

Question: And the “Volatility (μg/l air)” value ([2]; Table 7, citrus note)?
Answer: 35.82 μg/l air

Question: And the Type [2, 12]?
Answer: Bottom

Question: Which “Odor Threshold (μg/l air)” value [1, 7] does the source give for `CC/C=C\CCOC(=O)CCC` [(3Z)-3-hexen-1-yl butyrate] here?
Answer: 7.85E−02 μg/l air

Question: What about the Volatility [2, 3] of the same compound?
Answer: 1674.15 μg/l air

Question: And the Type [2, 4]?
Answer: TOP (perfuming compounds having a volatility ranging from 70,000 to 100 μg/l in air are referred to as “top notes”)

Question: And the Type [2, 8]?
Answer: Top

Question: What about the “Volatility (μg/l air)” value [2, 7] of the same compound?
Answer: 1674.15 μg/l air
